Data from ChEMBL document CHEMBL4715706, “Discovery of Benzotriazolo[4,3-d][1,4]diazepines as Orally Active Inhibitors of BET Bromodomains” (ACS Med Chem Lett, 2016).
pEC50, pIC50: −log10 of the molar value. Active and inactive are the calls of the source. The rule behind the calls is not given here.

What was measured:
[1] = Inhibition of BET in human THP-1 cells assessed as suppression of LPS-induced IL-6 release measured after 16 hrs by chemiluminescence ELISA; assay type: cell-based; details: THP-1, 16 h
[2] = Protein binding in mouse plasma
[3] = Clearance in rat at 1 mg/kg, iv; assay type: ADME, organism-based; details: in vivo
[4] = molecular target: T1, Bromodomain-containing protein 2 (Homo sapiens, UniProt P25440); experiment: Inhibition of BRD2 BD2 (unknown origin) using biotinylated JQ1 analog as substrate measured after 20 mins by AlphaLISA assay
[5] = molecular target: Nucleosome-remodeling factor subunit BPTF (Homo sapiens, UniProt Q12830); experiment: Inhibition of BPTF (unknown origin) measured after 70 mins by TR-FRET assay
[6] = Half life in rat at 1 mg/kg, iv; assay type: ADME, organism-based; details: in vivo
[7] = Oral bioavailability in rat at 10 mg/kg; assay type: ADME, organism-based; details: in vivo
[8] = Intrinsic clearance in human liver microsomes
[9] = molecular target: T1, Bromodomain-containing protein 2; experiment: Inhibition of BRD2 BD1 (unknown origin) using biotinylated JQ1 analog as substrate measured after 20 mins by AlphaLISA assay
[10] = Protein binding in dog plasma
[11] = molecular target: T2, Bromodomain and PHD finger-containing protein 3 (Homo sapiens, UniProt Q9ULD4); experiment: Inhibition of BRPF3 (unknown origin) measured after 70 mins by TR-FRET assay
T2 sequence (Q9ULD4 whole entry): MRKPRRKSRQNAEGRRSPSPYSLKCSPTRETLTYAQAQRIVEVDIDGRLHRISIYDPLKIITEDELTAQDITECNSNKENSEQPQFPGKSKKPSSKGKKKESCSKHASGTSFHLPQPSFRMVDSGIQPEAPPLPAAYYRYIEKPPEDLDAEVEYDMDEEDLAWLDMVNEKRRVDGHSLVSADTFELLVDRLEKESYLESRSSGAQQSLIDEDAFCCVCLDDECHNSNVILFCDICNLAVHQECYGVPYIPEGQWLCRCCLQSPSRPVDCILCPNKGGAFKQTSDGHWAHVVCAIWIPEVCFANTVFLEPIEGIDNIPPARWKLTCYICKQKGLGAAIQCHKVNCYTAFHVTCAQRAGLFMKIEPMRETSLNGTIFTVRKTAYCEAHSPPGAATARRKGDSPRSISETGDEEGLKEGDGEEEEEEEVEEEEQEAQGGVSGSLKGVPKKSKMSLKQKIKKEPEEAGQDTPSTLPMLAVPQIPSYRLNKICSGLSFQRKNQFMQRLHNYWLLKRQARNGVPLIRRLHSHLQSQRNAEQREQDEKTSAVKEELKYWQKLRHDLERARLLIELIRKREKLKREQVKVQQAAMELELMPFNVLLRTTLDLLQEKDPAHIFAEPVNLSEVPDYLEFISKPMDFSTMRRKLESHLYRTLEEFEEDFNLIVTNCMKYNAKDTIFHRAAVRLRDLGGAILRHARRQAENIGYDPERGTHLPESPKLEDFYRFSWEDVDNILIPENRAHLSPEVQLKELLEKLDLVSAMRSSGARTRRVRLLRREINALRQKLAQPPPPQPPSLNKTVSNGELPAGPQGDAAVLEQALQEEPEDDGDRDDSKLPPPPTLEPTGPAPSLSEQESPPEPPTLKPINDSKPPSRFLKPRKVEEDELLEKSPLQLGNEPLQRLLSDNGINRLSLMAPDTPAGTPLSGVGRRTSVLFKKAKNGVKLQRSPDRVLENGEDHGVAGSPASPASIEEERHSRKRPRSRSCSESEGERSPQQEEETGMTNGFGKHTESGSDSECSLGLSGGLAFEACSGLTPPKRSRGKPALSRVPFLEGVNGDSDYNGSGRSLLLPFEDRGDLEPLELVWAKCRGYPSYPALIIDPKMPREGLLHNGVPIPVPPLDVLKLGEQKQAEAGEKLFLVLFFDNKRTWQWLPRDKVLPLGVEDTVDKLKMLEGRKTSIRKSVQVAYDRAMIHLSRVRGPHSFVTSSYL

[12] = molecular target: T3, Bromodomain-containing protein 4 (Homo sapiens, UniProt O60885)
Description: Inhibition of His/FLAG-tagged BRD4 BD1 (unknown origin) using histone H4-TetraAcetylated-biotin peptide as substrate incubated for 20 mins by AlphaLISA assay

[13] = Half life in rat at 10 mg/kg, po; assay type: ADME, organism-based; details: in vivo
[14] = Protein binding in rat plasma; assay type: ADME, cell-free; details: read-out: PPB (converted)
[15] = Intrinsic clearance in dog liver microsomes
[16] = molecular target: T4, Bromodomain-containing protein 9 (Homo sapiens, UniProt Q9H8M2); experiment: Inhibition of His-tagged BRD9 (unknown origin) using biotinylated acetylated peptide as substrate measured after 20 mins by AlphaLISA assay
T4 sequence (Q9H8M2 whole entry): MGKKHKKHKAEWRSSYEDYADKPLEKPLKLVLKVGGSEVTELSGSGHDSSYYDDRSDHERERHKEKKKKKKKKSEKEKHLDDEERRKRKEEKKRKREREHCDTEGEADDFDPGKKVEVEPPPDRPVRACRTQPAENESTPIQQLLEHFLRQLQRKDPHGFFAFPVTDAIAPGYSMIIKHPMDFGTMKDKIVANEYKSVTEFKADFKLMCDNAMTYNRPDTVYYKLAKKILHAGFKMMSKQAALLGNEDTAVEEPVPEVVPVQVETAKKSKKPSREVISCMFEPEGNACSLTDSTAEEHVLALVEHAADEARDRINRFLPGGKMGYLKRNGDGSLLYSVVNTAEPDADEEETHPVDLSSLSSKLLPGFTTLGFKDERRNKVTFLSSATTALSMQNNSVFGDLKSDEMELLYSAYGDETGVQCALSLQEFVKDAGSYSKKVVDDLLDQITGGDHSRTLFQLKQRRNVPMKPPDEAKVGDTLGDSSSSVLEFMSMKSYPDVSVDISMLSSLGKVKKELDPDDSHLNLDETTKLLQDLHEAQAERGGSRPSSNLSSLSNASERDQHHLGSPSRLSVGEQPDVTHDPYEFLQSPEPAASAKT

CREB-binding protein = CREB-binding protein (Homo sapiens, UniProt Q92793); experiment: Inhibition of His-tagged CBP (unknown origin) using biotinylated acetylated peptide as substrate measured after 20 mins by AlphaLISA assay
Mus musculus = experiment: In vivo inhibition of BET in BALB/c mouse assessed as suppression of LPS-induced IL-6 level in plasma at 15 mg/kg, po pretreated with compound followed by LPS challenge and measured after 2 hrs by ELISA; assay type: functional, organism-based
[17] = molecular target: Bromodomain testis-specific protein (Homo sapiens, UniProt Q58F21); experiment: Inhibition of BRDT BD2 (unknown origin) using biotinylated JQ1 analog as substrate measured after 20 mins by AlphaLISA assay
[18] = molecular target: T3, Bromodomain-containing protein 4; experiment: Inhibition of BRD4 BD2 (unknown origin) using biotinylated JQ1 analog as substrate measured after 20 mins by AlphaLISA assay

T1 sequence (P25440 whole entry): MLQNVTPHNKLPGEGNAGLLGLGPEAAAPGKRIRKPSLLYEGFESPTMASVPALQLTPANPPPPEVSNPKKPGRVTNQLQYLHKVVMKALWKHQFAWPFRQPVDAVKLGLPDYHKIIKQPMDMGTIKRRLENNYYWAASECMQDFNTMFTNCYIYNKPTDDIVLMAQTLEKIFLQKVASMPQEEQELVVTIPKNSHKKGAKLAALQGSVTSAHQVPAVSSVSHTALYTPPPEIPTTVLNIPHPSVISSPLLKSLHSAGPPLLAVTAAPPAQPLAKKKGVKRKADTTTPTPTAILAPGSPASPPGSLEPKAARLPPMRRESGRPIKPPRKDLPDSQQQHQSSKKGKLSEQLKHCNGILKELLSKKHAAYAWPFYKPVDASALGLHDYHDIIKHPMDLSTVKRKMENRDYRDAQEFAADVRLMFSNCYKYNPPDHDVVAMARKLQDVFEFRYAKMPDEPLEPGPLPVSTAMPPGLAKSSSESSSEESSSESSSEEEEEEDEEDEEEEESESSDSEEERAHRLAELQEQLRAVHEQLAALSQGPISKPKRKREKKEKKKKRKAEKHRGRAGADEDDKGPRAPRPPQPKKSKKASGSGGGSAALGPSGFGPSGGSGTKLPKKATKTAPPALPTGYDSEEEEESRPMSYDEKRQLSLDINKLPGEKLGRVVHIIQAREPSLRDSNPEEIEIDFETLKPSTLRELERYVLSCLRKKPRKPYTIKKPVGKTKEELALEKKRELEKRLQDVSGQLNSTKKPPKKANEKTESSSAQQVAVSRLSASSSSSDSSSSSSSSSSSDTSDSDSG
CREB-binding protein, sequence (Q92793 whole entry): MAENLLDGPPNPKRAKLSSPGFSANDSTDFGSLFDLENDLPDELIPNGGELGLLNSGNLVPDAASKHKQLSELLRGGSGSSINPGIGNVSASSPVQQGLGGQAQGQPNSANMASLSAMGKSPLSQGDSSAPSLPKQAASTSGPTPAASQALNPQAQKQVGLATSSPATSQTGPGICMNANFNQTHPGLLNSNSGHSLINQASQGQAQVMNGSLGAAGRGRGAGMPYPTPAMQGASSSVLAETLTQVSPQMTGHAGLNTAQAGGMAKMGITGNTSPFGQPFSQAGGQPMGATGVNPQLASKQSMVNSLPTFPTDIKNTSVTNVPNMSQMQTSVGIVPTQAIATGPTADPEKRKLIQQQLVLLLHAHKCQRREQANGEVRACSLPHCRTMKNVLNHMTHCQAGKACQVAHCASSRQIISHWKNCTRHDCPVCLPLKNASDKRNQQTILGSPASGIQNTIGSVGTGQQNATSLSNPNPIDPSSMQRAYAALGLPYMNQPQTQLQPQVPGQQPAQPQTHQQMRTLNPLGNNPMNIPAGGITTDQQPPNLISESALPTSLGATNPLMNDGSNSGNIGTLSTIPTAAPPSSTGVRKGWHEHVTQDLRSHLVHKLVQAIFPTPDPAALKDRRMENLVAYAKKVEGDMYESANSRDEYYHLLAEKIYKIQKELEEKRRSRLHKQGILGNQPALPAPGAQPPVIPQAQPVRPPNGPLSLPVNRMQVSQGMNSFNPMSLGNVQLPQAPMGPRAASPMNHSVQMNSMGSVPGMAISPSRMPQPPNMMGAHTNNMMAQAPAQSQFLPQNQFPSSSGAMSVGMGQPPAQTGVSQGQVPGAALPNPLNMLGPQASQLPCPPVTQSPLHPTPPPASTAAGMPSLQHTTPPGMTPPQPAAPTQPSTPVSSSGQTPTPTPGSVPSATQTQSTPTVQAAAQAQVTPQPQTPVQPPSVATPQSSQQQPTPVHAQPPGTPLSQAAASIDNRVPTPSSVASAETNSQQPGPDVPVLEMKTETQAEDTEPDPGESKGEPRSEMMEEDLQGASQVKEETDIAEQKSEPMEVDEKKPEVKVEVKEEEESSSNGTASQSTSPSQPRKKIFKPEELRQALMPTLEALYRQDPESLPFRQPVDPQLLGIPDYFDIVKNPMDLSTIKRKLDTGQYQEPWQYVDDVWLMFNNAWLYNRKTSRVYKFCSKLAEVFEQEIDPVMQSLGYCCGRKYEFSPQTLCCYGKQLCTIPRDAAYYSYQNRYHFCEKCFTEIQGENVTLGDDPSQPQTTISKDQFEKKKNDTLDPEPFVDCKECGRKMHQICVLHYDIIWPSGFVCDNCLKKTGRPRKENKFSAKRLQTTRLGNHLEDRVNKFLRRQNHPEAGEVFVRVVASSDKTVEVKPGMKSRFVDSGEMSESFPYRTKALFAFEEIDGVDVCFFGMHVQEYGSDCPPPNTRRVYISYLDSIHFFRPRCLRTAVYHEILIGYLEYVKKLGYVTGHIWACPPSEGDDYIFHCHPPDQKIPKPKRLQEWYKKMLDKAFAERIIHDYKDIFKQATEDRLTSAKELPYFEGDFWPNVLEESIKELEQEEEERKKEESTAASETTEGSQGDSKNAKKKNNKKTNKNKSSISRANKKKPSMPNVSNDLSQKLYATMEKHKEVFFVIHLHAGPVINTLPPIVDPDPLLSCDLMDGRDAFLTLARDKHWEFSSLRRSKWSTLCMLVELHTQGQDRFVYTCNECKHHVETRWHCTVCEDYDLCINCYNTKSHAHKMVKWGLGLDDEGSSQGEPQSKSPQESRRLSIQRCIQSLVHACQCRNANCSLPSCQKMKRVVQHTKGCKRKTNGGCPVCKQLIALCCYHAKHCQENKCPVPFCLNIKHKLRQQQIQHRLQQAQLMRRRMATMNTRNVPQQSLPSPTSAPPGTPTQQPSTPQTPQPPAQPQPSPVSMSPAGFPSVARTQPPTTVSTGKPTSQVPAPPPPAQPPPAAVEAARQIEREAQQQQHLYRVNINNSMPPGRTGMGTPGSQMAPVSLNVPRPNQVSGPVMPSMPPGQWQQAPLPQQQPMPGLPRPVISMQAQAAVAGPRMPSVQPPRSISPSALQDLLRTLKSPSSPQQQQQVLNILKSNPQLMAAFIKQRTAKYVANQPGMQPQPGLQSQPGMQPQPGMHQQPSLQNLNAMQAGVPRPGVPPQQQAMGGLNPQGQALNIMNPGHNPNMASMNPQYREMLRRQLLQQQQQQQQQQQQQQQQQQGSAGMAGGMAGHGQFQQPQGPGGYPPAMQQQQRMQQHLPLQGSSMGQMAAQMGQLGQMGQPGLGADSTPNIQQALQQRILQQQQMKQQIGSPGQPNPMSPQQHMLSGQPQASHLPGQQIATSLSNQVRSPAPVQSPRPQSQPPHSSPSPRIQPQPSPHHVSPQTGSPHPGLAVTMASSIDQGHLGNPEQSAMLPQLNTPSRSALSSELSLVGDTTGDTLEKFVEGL

pEC50 [1]: 7.89
fraction unbound [2]: 0.02
clearance [3]: 63.3 mL/min/kg
pIC50 [4]: 8.52
pIC50 [5]: < 4.82
half-life [6]: 0.67 h
bioavailability [7]: 23%
microsomal CLint [8]: 5.1 µL/min/mg
pIC50 [9]: 8.52
fraction unbound [10]: 0.04
pIC50 [11]: < 4.82
pIC50 [12]: 7.82
half-life [13]: 1.8 h
fraction unbound [14]: 0.04
microsomal CLint [15]: 19 µL/min/mg
pIC50 [16]: < 4.82
pIC50 (CREB-binding protein): 5.66
pIC50 [17]: 8.52
pIC50 [18]: 8.52
SMILES: Cc1nnc2n1-c1ccc(-c3ccc(N)nc3)cc1N(c1ccc(Cl)cc1)C[C@H]2C
inhibition (Mus musculus): Active
